# Tested on: T47D (PIK3CA H1047R) cells
# Assay: pS473 AKT assay with 2.5% FBS, T47D cells
# Assay type: cell-based
# Details: Homo sapiens, pSer473 AKT, DMEM with 2.5% FBS, 2 h treatment, read-out: T47D_IC50
# Method in brief: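 T47D (PIK3CA H1047R) cells were switched to DMEM with 2.5% FBS and exposed to compounds for 2 h. After paraformaldehyde fixation, pSer473 AKT was detected by in-cell ELISA (rabbit primary, HRP anti-rabbit secondary, chemiluminescence); IC50 values were fitted from the concentration series.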
row,IC50 [nM],Structure (SMILES)
1,< 1000,"CC(=O)N1CC(n2ncc3c4c(C(C)Nc5ccc(Cl)nc5-c5ccc(=O)n(C)c5)cc(C)cc4c(=O)n(C)c32)C1 (stereo not shown) [Compound 100, 3-(1-Acetylazetidin-3-yl)-9-(1-((6-chloro-1′-methyl-6′-oxo-1′,6′-dihydro-[2,3′-bipyridin]-3-yl)amino)ethyl)-4,7-dimethyl-3,4-dihydro-5H-pyrazolo[3,4-c]isoquinolin-5-one]"
2,< 1000,"CNC(=O)c1ccc(-c2nc(Cl)ccc2NC(C)c2cc(C)cc3c(=O)n(C)c4c(cnn4C4CN(C(C)=O)C4)c23)cn1 (stereo not shown) [Compound 101, 3-((1-(3-(1-acetylazetidin-3-yl)-4,7-dimethyl-5-oxo-4,5-dihydro-3H-pyrazolo[3,4-c]isoquinolin-9-yl)ethyl)amino)-6-chloro-N-methyl-[2,3′-bipyridine]-6′-carboxamide]"
3,1000 to 5000,"CC(=O)N1CC(n2ncc3c4c(C(C)Nc5ccc(Cl)nc5-c5ncn(CCO)n5)cc(C)cc4c(=O)n(C)c32)C1 (stereo not shown) [Compound 102, 3-(1-acetylazetidin-3-yl)-9-(1-((6-chloro-2-(1-(2-hydroxyethyl)-1H-1,2,4-triazol-3-yl)pyridin-3-yl)amino)ethyl)-4,7-dimethyl-3,4-dihydro-5H-pyrazolo[3,4-c]isoquinolin-5-one]"
4,< 1000,"Cc1cc(C(C)Nc2ccc(Cl)nc2-c2ncn(C)n2)c2c(c1)c(=O)n(C)c1c2cnn1C1CN(C(=O)CO)C1 (stereo not shown) [Compound 103, 9-(1-((6-Chloro-2-(1-methyl-1H-1,2,4-triazol-3-yl)pyridin-3-yl)amino)ethyl)-3-(1-(2-hydroxyacetyl)azetidin-3-yl)-4,7-dimethyl-3,4-dihydro-5H-pyrazolo[3,4-c]isoquinolin-5-one]"
5,< 1000,"Cc1cc(C(C)Nc2ccc(Cl)nc2-c2ncn(C)n2)c2c(c1)c(=O)n(C)c1c2cnn1C1CN(C(=O)CN(C)C)C1 (stereo not shown) [Compound 104, 9-(1-((6-Chloro-2-(1-methyl-1H-1,2,4-triazol-3-yl)pyridin-3-yl)amino)ethyl)-3-(1-(dimethylglycyl)azetidin-3-yl)-4,7-dimethyl-3,4-dihydro-5H-pyrazolo[3,4-c]isoquinolin-5-one]"
6,< 1000,"[2H]C([2H])([2H])n1c(=O)c2cc(C)cc(C(C)Nc3ccc(Cl)nc3-c3ncn(C)n3)c2c2cnn([C@H]3CCN(C)C3)c21 (stereo partly drawn) [Compound 105, 9-(1-((6-Chloro-2-(1-methyl-1H-1,2,4-triazol-3-yl)pyridin-3-yl)amino)ethyl)-7-methyl-4-(methyl-d3)-3-((S)-1-methylpyrrolidin-3-yl)-3,4-dihydro-5H-pyrazolo[3,4-c]isoquinolin-5-one]"
7,< 1000,"Cc1cc(C(C)Nc2ccc(Cl)nc2-c2cnn(C)c2)c2c(c1)c(=O)n(C)c1c2cnn1CC1CCN(CC(F)F)CC1 (stereo not shown) [Compound 106, 9-(1-((6-Chloro-2-(1-methyl-1H-pyrazol-4-yl)pyridin-3-yl)amino)ethyl)-3-((1-(2,2-difluoroethyl)piperidin-4-yl)methyl)-4,7-dimethyl-3,4-dihydro-5H-pyrazolo[3,4-c]isoquinolin-5-one]"
8,< 1000,"CC(=O)N1CCC(Cn2ncc3c4c(C(C)Nc5ccc(Cl)nc5-c5cnn(C)c5)cc(C)cc4c(=O)n(C)c32)CC1 (stereo not shown) [Compound 107, 3-((1-acetylpiperidin-4-yl)methyl)-9-(1-((6-chloro-2-(1-methyl-1H-pyrazol-4-yl)pyridin-3-yl)amino)ethyl)-4,7-dimethyl-3,4-dihydro-5H-pyrazolo[3,4-c]isoquinolin-5-one]"
9,< 1000,"Cc1cc(C(C)Nc2ccc(Cl)nc2-c2cnn(C)c2)c2c(c1)c(=O)n(C)c1c2cnn1CC1CCN(C(=O)N(C)C)CC1 (stereo not shown) [Compound 108, 4-((9-(1-((6-chloro-2-(1-methyl-1H-pyrazol-4-yl)pyridin-3-yl)amino)ethyl)-4,7-dimethyl-5-oxo-4,5-dihydro-3H-pyrazolo[3,4-c]isoquinolin-3-yl)methyl)-N,N-dimethylpiperidine-1-carboxamide]"
10,< 1000,"CCNC(=O)N1CCC(Cn2ncc3c4c(C(C)Nc5ccc(Cl)nc5-c5ccncc5F)cc(C)cc4c(=O)n(C)c32)CC1 (stereo not shown) [Compound 109, 4-((9-(1-((6-Chloro-3′-fluoro-[2,4′-bipyridin]-3-yl)amino)ethyl)-4,7-dimethyl-5-oxo-4,5-dihydro-3H-pyrazolo[3,4-c]isoquinolin-3-yl)methyl)-N-ethylpiperidine-1-carboxamide]"
11,< 1000,"Cc1cc(C(C)Nc2ccc(Cl)nc2-c2ccncc2F)c2c(c1)c(=O)n(C)c1c2cnn1CC1CCN(CC(F)F)C1 (stereo not shown) [Compound 110, 9-(1-((6-Chloro-3′-fluoro-[2,4′-bipyridin]-3-yl)amino)ethyl)-3-((1-(2,2-difluoroethyl)pyrrolidin-3-yl)methyl)-4,7-dimethyl-3,4-dihydro-5H-pyrazolo[3,4-c]isoquinolin-5-one]"
12,< 1000,"Cc1cc(C(C)Nc2ccc(Cl)nc2-c2ncn(C)n2)c2c(c1)c(=O)n(C)c1c(C(C)O)ncn21 (stereo not shown) [Compound 111, 9-(1-((6-Chloro-2-(1-methyl-1H-1,2,4-triazol-3-yl)pyridin-3-yl)amino)ethyl)-3-(1-hydroxyethyl)-4,7-dimethylimidazo[1,5-a]quinazolin-5(4H)-one]"
13,< 1000,"Cc1cc(C(C)Nc2ccc(Cl)nc2-c2ncn(C)n2)c2c(c1)c(=O)n(C)c1c(-c3cccnc3)ncn21 (stereo not shown) [Compound 112, 9-(1-((6-Chloro-2-(1-methyl-1H-1,2,4-triazol-3-yl)pyridin-3-yl)amino)ethyl)-4,7-dimethyl-3-(pyridin-3-yl) imidazo[1,5-a]quinazolin-5(4H)-one]"
14,< 1000,"Cc1cc(C(C)Nc2ccc(Cl)nc2-c2ncn(C)n2)c2c(c1)c(=O)n(C)c1c(-c3cccnc3C)ncn21 (stereo not shown) [Compound 113, 9-(1-((6-chloro-2-(1-methyl-1H-1,2,4-triazol-3-yl)pyridin-3-yl)amino)ethyl)-4,7-dimethyl-3-(2-methylpyridin-3-yl)imidazo[1,5-a]quinazolin-5(4H)-one]"
15,< 1000,"Cc1cc(C(C)Nc2ccc(Cl)nc2-c2ncn(C)n2)c2c(c1)c(=O)n(C)c1c(-c3cncnc3)ncn21 (stereo not shown) [Compound 114, 9-(1-((6-chloro-2-(1-methyl-1H-1,2,4-triazol-3-yl)pyridin-3-yl)amino)ethyl)-4,7-dimethyl-3-(pyrimidin-5-yl)imidazo[1,5-a]quinazolin-5(4H)-one]"
16,< 1000,"Cc1cc(C(C)Nc2ccc(Cl)nc2-c2ncn(C)n2)c2c(c1)c(=O)n(C)c1c(-c3ccnc(C)c3)ncn21 (stereo not shown) [Compound 115, 9-(1-((6-chloro-2-(1-methyl-1H-1,2,4-triazol-3-yl)pyridin-3-yl)amino)ethyl)-4,7-dimethyl-3-(2-methylpyridin-4-yl)imidazo[1,5-a]quinazolin-5(4H)-one]"
17,< 1000,"Cc1cc(C(C)Nc2ccc(Cl)nc2-c2cnn(C)c2)c2c(c1)c(=O)n(C)c1c(-c3cccnc3C)ncn21 (stereo not shown) [Compound 116, 9-(1-((6-Chloro-2-(1-methyl-1H-pyrazol-4-yl)pyridin-3-yl)amino)ethyl)-4,7-dimethyl-3-(2-methylpyridin-3-yl) imidazo[1,5-a]quinazolin-5(4H)-one]"
18,< 1000,"Cc1cc(C(C)Nc2ccc(Cl)nc2-c2cnn(C)c2)c2c(c1)c(=O)n(C)c1c(-c3cncnc3)ncn21 (stereo not shown) [Compound 117, 9-(1-((6-chloro-2-(1-methyl-1H-pyrazol-4-yl)pyridin-3-yl)amino)ethyl)-4,7-dimethyl-3-(pyrimidin-5-yl)imidazo[1,5-a]quinazolin-5(4H)-one]"
19,< 1000,"CNC(=O)c1cc(-c2ncn3c4c(C(C)Nc5ccc(Cl)nc5-c5cnn(C)c5)cc(C)cc4c(=O)n(C)c23)ccn1 (stereo not shown) [Compound 118, 4-(9-(1-((6-chloro-2-(1-methyl-1H-pyrazol-4-yl)pyridin-3-yl)amino)ethyl)-4,7-dimethyl-5-oxo-4,5-dihydroimidazo[1,5-a]quinazolin-3-yl)-N-methylpicolinamide]"
20,< 1000,"Cc1cc(C(C)Nc2ccc(Cl)nc2-c2ncn(C)n2)c2c(c1)c(=O)n(C)c1c(C(=O)N(C)C)ncn21 (stereo not shown) [Compound 119, 9-(1-((6-Chloro-2-(1-methyl-1H-1,2,4-triazol-3-yl)pyridin-3-yl)amino)ethyl)-N,N,4,7-tetramethyl-5-oxo-4,5-dihydroimidazo[1,5-a]quinazoline-3-carboxamide]"
21,< 1000,"Cc1cc(C(C)Nc2ccc(Cl)nc2-c2cnn(C)c2)c2c(c1)c(=O)n(C)c1c(C(=O)N(C)C)ncn21 (stereo not shown) [Compound 120, 9-(1-((6-Chloro-2-(1-methyl-1H-pyrazol-4-yl)pyridin-3-yl)amino)ethyl)-N,N,4,7-tetramethyl-5-oxo-4,5-dihydroimidazo[1,5-a]quinazoline-3-carboxamide]"
22,< 1000,"Cc1cc(C(C)Nc2ccc(Cl)nc2-c2cnn(C)c2)c2c(c1)c(=O)n(C)c1c(C(=O)N3CCC3)ncn21 (stereo not shown) [Compound 121, 3-(azetidine-1-carbonyl)-9-(1-((6-chloro-2-(1-methyl-1H-pyrazol-4-yl)pyridin-3-yl)amino)ethyl)-4,7-dimethylimidazo[1,5-a]quinazolin-5(4H)-one]"
23,< 1000,"Cc1cc(C(C)Nc2ccc(Cl)nc2-c2cnn(C)c2)c2c(c1)c(=O)n(C)c1c(C(=O)N3CC(O)C3)ncn21 (stereo not shown) [Compound 122, 9-(1-((6-chloro-2-(1-methyl-1H-pyrazol-4-yl)pyridin-3-yl)amino)ethyl)-3-(3-hydroxyazetidine-1-carbonyl)-4,7-dimethylimidazo[1,5-a]quinazolin-5(4H)-one]"
24,< 1000,"Cc1cc(C(C)Nc2ccc(Cl)nc2-c2ncn(C)n2)c2c(c1)c(=O)n(CC(F)F)c1c(C(=O)N(C)C)ncn21 (stereo not shown) [Compound 123, 9-(1-((6-chloro-2-(1-methyl-1H-1,2,4-triazol-3-yl)pyridin-3-yl)amino)ethyl)-4-(2,2-difluoroethyl)-N,N,7-trimethyl-5-oxo-4,5-dihydroimidazo[1,5-a]quinazoline-3-carboxamide]"
25,< 1000,"Cc1cc(C(C)Nc2ccc(Cl)nc2-c2c[nH]nc2C)c2c(c1)c(=O)n(C)c1c(C(=O)N(C)C)ncn21 (stereo not shown) [Compound 124, 9-(1-((6-Chloro-2-(3-methyl-1H-pyrazol-4-yl)pyridin-3-yl)amino)ethyl)-N,N,4,7-tetramethyl-5-oxo-4,5-dihydroimidazo[1,5-a]quinazoline-3-carboxamide]"

# From patent publication US20250270213A1, “PI3Ka INHIBITORS” (Synnovation Therapeutics, Inc., priority 2022, published 2025)
